Several values for one entry are separate records, joined by “and”; a condition that tells them apart may be missing. Equal values may be shown once. Entries after “also recorded” stand apart in the source; their conditions may differ.
Key:
[1] = system: Infectious Canine Tracheobronchitis (ICT) or Kennel Cough; assay type: in vivo, dog; details: for Clinical course (Days to Recover): racing greyhounds Miami, oral antibiotic plus cough suppressant, no Tamiflu, 5 days
[2] = system: Feline Parvoviral Enteritis; experiment: Feline parvoviral enteritis cases: treatment and prevention with Tamiflu; assay type: in vivo, cat
Experimental: Table 6 represents 5 cases of Feline Parvoviral Enteritis with Tamiflu at 1 mg/lb AM/PM for 10 treatments.

E. coli = experiment: Clinical Trial: Tamiflu and E. coli (case Pinga, Table 16); assay type: in vivo, feline; details: for Clinical response: case Pinga, acute vomiting and hematuria, endotoxic condition
Experimental: In Table 16, E. coli, a neuraminidase dependent bacteria, was cultured from Pinga's urine following an acute onset of vomiting and hematuria. […] 24, 2005 when […] presented in an endotoxic condition.

[3] = system: Raccoon Parvoenteritis/Distemper; experiment: Raccoon parvoenteritis/distemper treated with Tamiflu; assay type: in vivo; details: raccoons, Tamiflu 1 mg/lb every 12 hrs for 10 treatments, no IV drugs
Experimental: Table 7 represents 5 raccoons treated with Tamiflu at 1 mg/lb given every 12 hrs for 10 treatments. Treatment administered by civilian rehabbers at their homes. Granules mixed with pancake syrup.
Raccoons represent the 5th species (cow, dog, cat, mice) in which a neuraminidase inhibitor has been successful in treating or preventing a disease associated with neuramimidase dependent bacteria. Before using Tamiflu, the hemorrhagic gastroenteritis (Parvo) in raccoon was 100% fatal. […] Treatment was administered by untrained lay personnel at the rehab centers.

[4] = system: canine parvoviral enteritis; experiment: Canine parvoviral enteritis clinical cases: treatment and prevention with oral Tamiflu; assay type: in vivo, dog; details: for Outcome of exposed dogs (Days to Recover): exposed - preventive, Tamiflu 1 mg/lb once a day (AM) for 5 days
Experimental: Table 3 represents 28 Chihuahua dogs and puppies that experienced an outbreak of canine parvoviral enteritis within their kennel. The initial treatment lasted one week and was consistent with traditional therapy. (IV fluids, antibiotics and antiemetics). During the first week, 9 puppies died and a second veterinarian was consulted.
The second veterinarian removed all IV treatment and started oral Tamiflu and AmoxiDrops on 11 puppies. This treatment was administered by the kennel staff with the veterinarian consulting by phone.
The exposed dogs received 1 mg/lb of Tamiflu once a day for 5 days.
Table 4 represents of 25 cocker spaniel dogs and puppies that experienced an outbreak of canine parvoviral enteritis within their kennel. The initial treatment lasted one week and was consistent with traditional therapy consisting of IV fluids and antibiotics, antiemetics and steroids. During this period of time, 9 puppies died, and a second veterinarian was consulted.
The second veterinarian removed all IV treatment and oral Tamiflu and sulfadimethoxine/ormetoprim (antibiotic) were the only drugs administered to 11 of the puppies. The 12th puppy was taken to the veterinarian's clinic and received IV therapy. Those puppies remaining at the kennel were treated by the kennel staff.
Table 5 represents 48 individual cases of Canine Parvoviral Enteritis treated with 1 mg/lb Tamiflu AM/PM for 10 treatments. Cases posted VIN's Infectious Dz Board by 20 veterinarians practicing in 15 states.

## C[C@H]1c2cccc(O)c2C(O)=C2C(=O)[C@]3(O)C(O)=C(C(N)=O)C(=O)[C@@H](N(C)C)[C@@H]3[C@@H](O)[C@@H]21 [Doxy]
[1]
  Clinical course (Days to Recover): No Change

## CC1=C(C(=O)O)N2C(=O)[C@@H](NC(=O)[C@H](N)c3ccccc3)[C@H]2SC1 [Cephalexin]
[1]
  Clinical course (Days to Recover): No Change

## CCOC(=O)C1=C[C@@H](OC(CC)CC)[C@H](NC(C)=O)[C@@H](N)C1 [Tamiflu, oseltamivir]
[2]; cats, Tamiflu 1 mg/lb AM/PM for 10 treatments, with IV drugs or SQ fluids
  Days to Recover: 4 days and 2 days and 3 days
[2]; exposed kitten, Tamiflu 1 mg/lb once a day (AM) for 5 days
  Outcome of exposed kitten (Days to Recover): remained normal
E. coli; E. coli cultured from urine
  Clinical response: dramatic reversal
E. coli; cat Pinga, E. coli cultured from urine, at 2nd treatment, Nov. 24, 2004 5:35 PM, Tamiflu 12 mg PO (1 mg/lb), with Zeniquin
  Observations: Pinga is more alert and has not vomited
E. coli; cat Pinga, at 3rd treatment, Nov. 25, 2004
  Temp: 99.5 F.
E. coli; cat Pinga, at 4th treatment, Nov. 25, 2004
  Temp: 98.9 F.
E. coli; cat Pinga, at 4th treatment, Nov. 25, 2004 5:30 PM, Tamiflu 12 mg PO
  Observations: Urinated, was normal yellow color . . . has
E. coli; cat Pinga, at 5th treatment, Nov. 26, 2004
  Temp: 98.8 F.
E. coli; cat Pinga, at 5th treatment, Nov. 26, 2004 10:30 AM, Tamiflu 12 mg PO, with Zeniquin
  Observations: exam is normal
E. coli; cat Pinga, at 6th treatment, Nov. 26, 2004
  Temp: 100.6 F.
E. coli; cat Pinga, at 6th treatment, Nov. 26, 2004 5 PM, Tamiflu 12 mg PO
  Observations: Urinated normal urine . . . passed 3 small
E. coli; cat Pinga, at 7th treatment, Nov. 27, 2004
  Temp: 98.8 F.
E. coli; cat Pinga, at 7th treatment, Nov. 27, 2004 10:30 AM, Tamiflu 12 mg PO, with Zeniquin
  Observations: more alert . . . began to eat Wellness dry
E. coli; cat Pinga, at 9th treatment, Nov. 28, 2004
  Temp: 100.1 F.
E. coli; cat Pinga, at 9th treatment, Nov. 28, 2004 10:30 AM, Tamiflu 12 mg PO, with Zeniquin
  Observations: almost “normal” . . . maybe weak in rear
E. coli; cat Pinga, at 10th (last) treatment, 5:30 PM, Tamiflu 12 mg PO
  Observations: Pinga appears to be normal . . . this is his
[3]
  Days to Recover: 3 days
[1]; kennel cough, Tamiflu 1 mg/lb AM/PM, with or without oral antibiotic, no cough suppressant
  Days to Recover: 3 to 5 days
[1]; sick dogs 1 mg/lb AM/PM 5 days, others and new puppies 1 mg/lb once a day for 5 days
  Illness in holding kennels under herd health program: below 5%
[4]; Chihuahua kennel puppies, Tamiflu 1 mg/lb AM/PM oral with AmoxiDrops, no IV drugs
  Days to Recover: 5 days and 3 days
[4]; Chihuahua kennel, 11 puppies, oral Tamiflu and AmoxiDrops
  Survival of puppies: All puppies survived
[4]; Chihuahua kennel
  Outcome of exposed dogs (Days to Recover): remained healthy
[4]; Sandcastle Kennels cocker puppies, Tamiflu 1 mg/lb AM/PM oral with sulfadimethoxine/ormetoprim
  Days to Recover: 3 days and 5 days and 4 days
[4]; Sandcastle Kennels
  Outcome of exposed dogs (Days to Recover): did not develop canine parvoviral enteritis; also recorded: Healthy
[4]; Table 5, exposed puppy, weak parvo test, Tamiflu 1 mg/lb AM/PM
  Outcome of exposed dog (Days to Recover): Normal

## CN1CCN(c2c(F)cc3c(=O)c(C(=O)O)cn4c3c2OCN4C)CC1 [Zeniquin]
E. coli; E. coli cultured from urine
  Clinical response: failed to respond
E. coli; cat Pinga, Zeniquin 12.5 mg/day PO from Nov. 22 to Nov. 24, 2004, before Tamiflu
  Clinical course under antibiotic therapy (Medical History): had gotten progressively worse over the course of antibiotic therapy, and now appeared to be approaching

— patent US7910620B2, “Uses of neuraminidase inhibitors in infectious diseases” (priority 2005, dated 2011)
